Measurements reported in US11365201B2, “Chlorotonil derivatives” (HELMHOLTZ-ZENTRUM FÜR INFEKTIONSFORSCHUNG GMBH, priority 2017, dated 2022).
≈ marks a conversion by molar mass, not a printed value. Where two headings read alike, the source gives them in different places.

Tests used:
[1] = tested on: zebrafish larvae of the TLF wild type line; assay: Zebrafish embryo toxicity, maximum tolerated concentration (MTC), TLF line; format: in vivo; conditions: at five dpf, incubation started at one dpf
Method: (§1) Zebrafish Embryo Toxicity
(§2) The maximum tolerated concentration (MTC) was determined on zebrafish larvae of the AB wildtype line and the TLF wild type line. Larvae were placed into a 96-well plate (one larva per well) and incubated in a solution at different concentrations (100, 50, 25, 10, 1 μM) of ChA, ChA-Epo2, ChB or ChB-Epo at two days post fertilization (dpf) for AB and in a solution at different concentrations of ChA (100, 50 μM) ChA-Epo2 (25, 10, 1 μM), ChB (100, 50 μM) or ChB-Epo (100, 50, 25 μM) at one dpf for TLF. Five zebrafish larvae were used per condition. The incubated embryos were kept in compound solutions at 28° C. until five dpf and monitored daily by microscopy. The final MTC result was recorded at five dpf. Compound solutions were prepared in the larvae medium Danieau's. Additionally a solution of 0.5% DMSO in Danieau's was used as vehicle control and Danieau's alone as a negative control.

[2] = tested on: S. aureus Newman; assay: Antimicrobial assay, MIC by microbroth dilution; format: cell-based; conditions: Staphylococcus aureus, NEWMAN; 16 h, cation-adjusted Muller-Hinton broth
Method: (§3) Bacterial strains used in susceptibility assays (minimum inhibitory concentrations, MIC) were either part of our internal strain collection or were purchased form the German Collection of Microorganisms and Cell Cultures (DSMZ). All compounds were prepared as DMSO stocks and MIC values were determined in standard microbroth dilution assays. Overnight cultures of bacteria were diluted in cation-adjusted Muller-Hinton broth (BBL™, BD) and were adjusted to approximately 10^5 cfu/mL. […] Bacteria were grown in the presence of the derivatives in serial dilution for 16 h at their optimal growth temperature. MIC values were determined according to CLSI guidelines (antibiotic concentration at which no visible bacterial growth is observed).

[3] = tested on: P. falciparum 3D7 (sensitive strain); assay: Antiplasmodial in vitro drug sensitivity assay (HRP2-ELISA); format: cell-based; conditions: Plasmodium falciparum
Method: (§4) Two laboratory strains of P. falciparum, the chloroquine sensitive 3D7 and the multi-resistant Dd2 were kept in continuous culture as previously described (Trager and Jensen 1976). In brief, parasites were kept in complete culture medium (RPMI 1640, 25 mM HEPES, 2 mM L-glutamine, 50 μg/ml gentamicin and 0.5% w/v AlbuMAX) at 37° C., 5% CO2 and 5% oxygen at 5% hematocrit with daily change of medium. Synchronization was performed with sorbitol twice a week (Lambros and Vanderberg 1979).
(§5) In Vitro Drug Sensitivity Assay
(§6) All compounds were dissolved in DMSO at stock dilutions between 25 and 100 mM; the reference drug chloroquine diphosphate (MW: 515.86) was diluted in distilled water and DMSO, respectively. […] Antiplasmodial activity of the different compounds was tested in a drug sensitivity assay against the two laboratory strains using the histidine-rich protein 2 (HRP2) assay as described previously (Noedl 2005). In brief: 96 well plates were pre-coated with the different compounds in a threefold dilution before ring stage parasites were added in complete culture medium at a hematocrit of 1.5% and a parasitemia of 0.05% in a total volume of 225 μl per well. After three days of incubation plates were frozen until analyzed by HRP2-ELISA. All compounds were evaluated in duplicate in at least two independent experiments.

[4] = tested on: P. falciparum Dd2 (resistant strain); assay: as above; format: cell-based; conditions: Plasmodium falciparum
Method: as §4, §5, §6

[5] = tested on: zebrafish larvae of the AB wildtype line; assay: Zebrafish embryo toxicity, maximum tolerated concentration (MTC), AB line; format: in vivo
Method: as §1, §2

[6] = tested on: Gram-positive bacteria; assay: Antimicrobial assay, MIC against a range of Gram-positive bacteria (Table 5); format: cell-based; conditions: read-out: MIC
Method: as §3

[7] = tested on: Plasmodium falciparum; conditions: starting parasitemia levels of 0.01, 0.05, 0.5 and […]; cited from earlier work
[8] = Determination of water solubility, Method 2 (HPLC-MS standard curve, saturated solution in water); format: physicochemical; conditions: summary of Table 1, method not given
Method: Determination of Water Solubility
A standard curve with 10 calibration points of the compound of interest is plotted using HPLC-MS and serial dilution. The dilutions and stock solutions were prepared in THF as a solvent. Following the measurements, a saturated solution in water of the compound in study was also measured. Upon plotting the standard curve using the peak areas of the MS peaks, the water samples were plotted along the curve and the solubility was then calculated.

SMILES: C[C@@H]1C(=O)O[C@@H](C)/C=C/C=C\[C@@H](C)[C@@H]2C=C[C@@H]3C[C@@]4(C)O[C@H]4[C@@H](C)C3C2/C(O)=C(\Cl)C1=O (stereo partly shown) [ChB-Epo]
- Observations noted on fish larvae ([1]; 50 μM): slight tail malformation
- Observations noted on fish larvae ([1]; 100 μM): tail malformation
- MTC (maximum tolerated concentration) [1]: 25 µM
- MIC [2]: 0.05 µg/mL (≈ 0.108 µM)
- IC50 ([3]; P. falciparum 3D7 (sensitive strain), read-out: IC50 against P. falciparum 3D7): 158 nM
- IC50 ([4]; P. falciparum Dd2 (resistant strain), read-out: IC50 against P. falciparum Dd2): 182 nM
- Observations noted on fish larvae ([5]; 50 μM, AB line, at five dpf, incubation started at two dpf): died
- Observations noted on fish larvae ([5]; 100 μM, AB line, at five dpf, incubation started at two dpf): died
- MTC (maximum tolerated concentration) ([5]; AB line, at five dpf, incubation started at two dpf): 25 µM
- Toxicity in zebrafish (MTC), comparison of the epoxide derivatives ([5]; zebrafish, line not named in the sentence (Tables 6 and 7)): less toxic than the chlorotonil A derivative
- MIC ([6]; Enterococcus faecalis, E. faecalis 20478): 3.2 µg/mL (≈ 6.94 µM)
- MIC ([6]; Enterococcus faecalis, E. faecalis 29212): > 3.2 µg/mL
- MIC ([6]; Enterococcus faecium, E. faecium 20477): > 3.2 µg/mL
- MIC ([6]; Enterococcus faecium, VRE, E. faecium 17050 (VRE)): 3.2 µg/mL (≈ 6.94 µM)
- MIC ([6]; Micrococcus luteus, M. luteus): 0.1 µg/mL (≈ 0.217 µM)
- MIC ([6]; Mycolicibacterium smegmatis, M. smegmatis): > 3.2 µg/mL
- MIC ([6]; Priestia megaterium, B. megaterium): 0.05 µg/mL (≈ 0.108 µM)
- MIC ([6]; Staphylococcus epidermidis, S. epidermidis 28765): 0.8 µg/mL (≈ 1.74 µM)
- MIC ([6]; Streptococcus pneumoniae, PRSP, S. pneumoniae 11865 (PRSP)): > 32 µg/mL
- MIC ([6]; Streptococcus pneumoniae, S. pneumoniae 20566): 0.8 µg/mL (≈ 1.74 µM)

SMILES: CCN(CC)CCCC(C)Nc1ccnc2cc(Cl)ccc12 (stereo not shown) [Chloroquine, reference compound]
- IC50 ([3]; 3D7, read-out: IC50 against P. falciparum 3D7): 7.4 nM
- IC50 ([4]; DD2, read-out: IC50 against P. falciparum Dd2): 292 nM
- Inoculum effect: difference in IC50 between lowest and highest parasitemia [7]: 5.6 fold

SMILES: CC1=C[C@@H](C)[C@H]2[C@@H]3C(=O)C(Cl)(Cl)C(=O)[C@H](C)C(=O)O[C@@H](C)/C=C/C=C\[C@@H](C)[C@@H]3C=C[C@@H]2C1 [Chlorotonil A (ChA), Chlorotonil A, reference compound]
- water solubility [8]: less than 2 μg/mL

SMILES: C[C@H]1[C@H](OC(=O)CCC(=O)O)O[C@@H]2O[C@@]3(C)CC[C@H]4[C@H](C)CC[C@@H]1[C@@]24OO3 [artesunate]
- Inoculum effect: difference in IC50 between lowest and highest parasitemia [7]: 8.8 fold
